The values below come from patent US11591341B2 (ALIGOS THERAPEUTICS, INC., priority 2019, dated 2023).

In general, EC50 refers to the concentration that produces a half-maximal response.

The test system of the test is HBV. Description: HBV-DNA Antiviral Assay Using HepG2.2.15 Cells (extracellular HBV DNA by qPCR). It counts as cell-based. The settings on record: Hepatitis B virus, 168 h; HBV DNA inhibition, HepG2.2.15 cells, extracellular HBV DNA by qPCR on day 7; read-out: EC50. The method, then:
The following assay procedure describes the HBV antiviral assay. This assay uses HepG2.2.15 cells, which have been transfected with HBV genome, and extracellular HBV DNA quantification as endpoint. Cell viability is assessed in parallel by measuring the intracellular ATP content using the CellTiter-Glo© reagent from Promega.
On day 0, HepG2.2.15 cells were seeded in 96-well plates at a density of 6.0×10^4 cells/well (0.1 mL/well). The cells were incubated at 37° C. and 5% CO2.
On day 1, the test articles were diluted and added to cell culture wells (8 concentrations, 4-fold dilution, in duplicate). GLS4, Tenofovir and Sorafenib were used as reference compounds. 100 μL of culture medium containing the compounds was added to the plate, and the final total volume per well was 200 μL. The final concentration of DMSO in the culture medium was 0.5%. The plate map of compound treatment is shown below. The cells were cultured at 37° C. and 5% CO2 for 3 days.
On day 4, the plates were refreshed with culture media with compounds.
On day 7, cell viability was assessed using the CellTiter-Glo, and the cell culture supernatants were collected for determination of HBV DNA by qPCR.
Extracellular DNA was isolated with QIAamp 96 DNA Blood Kit per the manufacturer's manual. HBV DNA was then quantified by qPCR with HBV specific primers and probes as specified in Table 1 using the FastStart Universal MasterMix from Roche on an ABI-7900HT. The PCR cycle program consisted of 95° C. for 10 min, followed by 40 cycles at 95° C. for 15 sec and 60° C. for 1 min.
A DNA standard was prepared by dilution of the pAAV2 HBV1.3 plasmid with concentrations ranging from 10 to 1×10^7 copies/μL and used to generate a standard curve by plotting Ct value vs. the concentration of the HBV plasmid DNA standard. The quantity of HBV DNA in each sample was determined by interpolating from the standard curve.
Cell viability was calculated as follows: % Cell viability=(luminescence value of test sample−average luminescence value of blank)/(average luminescence value of 0.5% DMSO control−average luminescence of blank)×100%. HBV DNA inhibition was calculated as follows: 100-(HBV DNA copy number of test sample−HBV DNA copy number of ETV)/HBV DNA copy number of 0.5% DMSO control−HBV DNA copy number of ETV)×100%. The CC50, EC50 and EC90 values were determined by dose-response curves fitted by GraphPad Prism using “log (agonist) vs. response—Variable slope”.

As for `C[C@H]1Cn2c(c(C(=O)NCc3ccccc3-c3ncccn3)n(-c3ccc(-n4cccn4)cc3)c2=O)CN1C(=O)c1ccc(Br)c(Cl)c1` (racemic) [Example 469, rac-(6S)-7-(4-bromo-3-chloro-benzoyl)-6-methyl-3-oxo-2-(4-pyrazol-1-ylphenyl)-N-[(2-pyrimidin-2-ylphenyl)methyl]-6,8-dihydro-5H-imidazo[1,5-a]pyrazine-1-carboxamide], the concentration giving a half-maximal response (EC50) was below 100 nM.

In the case of `COc1ccc(CNC(=O)c2c3n(c(=O)n2-c2ccccc2)CCN(C(=O)c2ccc(Br)c(Cl)c2)C3)cc1` [Example 13, 7-(4-bromo-3-chlorobenzoyl)-N-[(4-methoxyphenyl)methyl]-3-oxo-2-phenyl-2H,3H,5H,6H,7H,8H-imidazo[1,5-a]pyrazine-1-carboxamide], the EC50 lay in the range of 500 to 5000 nM.

With `O=C1NCCCn2c1c1n(c2=O)CCN(C(=O)Nc2ccc(F)c(Cl)c2)C1` [Example 1, N-(3-chloro-4-fluorophenyl)-6,12-dioxo-1,3,4,8,9,10,11,12-octahydro-2H,6H-pyrazino[1′,2′:3,4]imidazo[1,5-a][1,4]diazepine-2-carboxamide], the EC50 is above 5000 nM.

In the case of `COc1ccc(CN2CCCn3c(c4n(c3=O)CCN(C(=O)Nc3ccc(F)c(Cl)c3)C4)C2=O)cc1` [Example 4, N-(3-chloro-4-fluorophenyl)-11-(4-methoxybenzyl)-6,12-dioxo-1,3,4,8,9,10,11,12-octahydro-2H,6H-pyrazino[1′,2′:3,4]imidazo[1,5-a][1,4]diazepine-2-carboxamide], the EC50 is below 100 nM.

As to `O=C(Nc1ccc(F)c(Cl)c1)N1CCn2c(c3n(c2=O)CCN(Cc2ccccc2)C3=O)C1` [Example 16, 12-benzyl-N-(3-chloro-4-fluoro-phenyl)-8,13-dioxo-4,7,9,12-tetrazatricyclo[7.4.0.0^2,7]tridec-1-ene-4-carboxamide], the EC50 fell in the range of 500 to 5000 nM.
